From patent US9029378B2, “Substituted bicyclic aromatic carboxamide and urea compounds as vanilloid receptor ligands” (Gruenenthal GmbH, priority 2011, dated 2015)

molecular target: T1, vanilloid receptor 1 (VR1/TRPV1 receptor) (Homo sapiens, UniProt Q8NER1); experiment: Functional testing on the vanilloid receptor 1 (FLIPR Ca2+ influx assay, capsaicin); type: cell-based, human being; parameters: key to (f) (human being) Cap: effect in words (agonist / no effect): AG=agonist; NE=no effect; conditions: @1 μM; Cap=capsaicin; read-out: inhibition (as a percentage), (f) (human being) Cap
T1 construct: expressed in transfected cells; host or cells: CHO K1
T1 sequence (Q8NER1 whole entry): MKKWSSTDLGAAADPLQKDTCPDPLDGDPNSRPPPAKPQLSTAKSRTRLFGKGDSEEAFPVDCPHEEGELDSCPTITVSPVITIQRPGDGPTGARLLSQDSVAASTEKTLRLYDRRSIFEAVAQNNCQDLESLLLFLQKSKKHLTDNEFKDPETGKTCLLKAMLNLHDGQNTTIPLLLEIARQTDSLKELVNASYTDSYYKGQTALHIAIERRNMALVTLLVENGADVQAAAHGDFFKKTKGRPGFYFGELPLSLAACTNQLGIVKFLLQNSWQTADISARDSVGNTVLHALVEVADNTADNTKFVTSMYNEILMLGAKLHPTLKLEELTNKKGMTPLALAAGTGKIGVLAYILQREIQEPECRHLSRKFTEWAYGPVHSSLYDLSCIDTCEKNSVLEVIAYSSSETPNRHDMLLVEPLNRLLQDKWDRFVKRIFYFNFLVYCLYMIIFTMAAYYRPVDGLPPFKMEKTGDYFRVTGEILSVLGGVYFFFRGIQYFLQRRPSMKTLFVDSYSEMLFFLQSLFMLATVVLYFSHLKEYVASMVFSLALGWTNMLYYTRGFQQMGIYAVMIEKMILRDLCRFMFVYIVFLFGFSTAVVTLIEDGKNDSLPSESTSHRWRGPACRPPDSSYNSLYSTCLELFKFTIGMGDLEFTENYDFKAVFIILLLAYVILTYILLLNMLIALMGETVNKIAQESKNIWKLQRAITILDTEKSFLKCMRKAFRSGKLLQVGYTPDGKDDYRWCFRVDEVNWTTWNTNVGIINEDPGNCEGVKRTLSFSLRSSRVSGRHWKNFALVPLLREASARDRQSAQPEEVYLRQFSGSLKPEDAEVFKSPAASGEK
Experimental: Furthermore, preference may be given to compounds according to the invention that cause a 50 percent displacement of capsaicin, which is present at a concentration of 100 nM, in a FLIPR assay with CHO K1 cells which were transfected with the human VR1 gene at a concentration of less than 2,000 nM, preferably less than 1,000 nM, particularly preferably less than 300 nM, most particularly preferably less than 100 nM, even more preferably less than 75 nM, additionally preferably less than 50 nM, most preferably less than 10 nM.
In the process, the Ca^2+ influx is quantified in the FLIPR assay with the aid of a Ca^2+-sensitive dye (type Fluo-4, Molecular Probes Europe BV, Leiden, the Netherlands) in a fluorescent imaging plate reader (FLIPR, Molecular Devices, Sunnyvale, USA), as described hereinafter.
Pharmacological Methods I. Functional Testing Carried Out on the Vanilloid Receptor 1 (VR1/TRPV1 Receptor) […]
The number of cells in the suspension is set to 3×10^5 per mL and 150 μL of this suspension are in each case introduced into a recess in the cell culture plates coated as described hereinbefore. In the incubator the plates are left for two to three days at 37° C., 5% by volume of CO2 and 95% relative humidity. Subsequently, the cells are loaded with 2 μM of Fluo-4 and 0.01% by volume of Pluronic F127 (Molecular Probes Europe BV, Leiden, the Netherlands) in HBSS buffer (Hank's buffered saline solution, Gibco Invitrogen GmbH, Karlsruhe, Germany) for 30 min at 37° C., washed 3 times with HBSS buffer and after further incubation for 15 minutes at room temperature used for Ca^2+ measurement in a FLIPR assay. The Ca^2+-dependent fluorescence is in this case measured before and after the addition of substances (λex=488 nm, λem=540 nm). Quantification is carried out by measuring the highest fluorescence intensity (FC, fluorescence counts) over time.
The FLIPR protocol consists of 2 substance additions. First the compounds to be tested (10 μM) are pipetted onto the cells and the Ca^2+ influx is compared with the control (capsaicin 10 μM). This provides the result in % activation based on the Ca^2+ signal after the addition of 10 μM of capsaicin (CP). After 5 minutes' incubation, 100 nM of capsaicin are applied and the Ca^2+ influx is also determined.
Desensitising agonists and antagonists lead to suppression of the Ca^2+ influx. The % inhibition is calculated compared to the maximum achievable inhibition with 10 μM of capsazepine. Triple analyses (n=3) are carried out and repeated in at least 3 independent experiments (N=4). Starting from the percentage displacement caused by different concentrations of the compounds to be tested of general formula I, IC50 inhibitory concentrations which cause a 50-percent displacement of capsaicin were calculated. Ki values for the test substances were obtained by conversion by means of the Cheng-Prusoff equation (Cheng, Prusoff; Biochem. Pharmacol. 22, 3099-3108, 1973).
The affinity of the compounds of to the invention for the vanilloid receptor 1 (VR1/TRPV1 receptor) was determined as described hereinbefore (pharmacological method I). The compounds of the invention display outstanding affinity to the VR1/TRPV1 receptor (Table 2). In Table 2 the abbreviations below have the following meanings: • Cap=capsaicin • AG=agonist • NE=no effect
The value after the “@” symbol indicates the concentration at which the inhibition (as a percentage) was respectively determined.

inhibition at 1 µM [%] | Molecule
40 | CC1CCN(c2nc(C(F)(F)F)ccc2CNC(=O)Nc2ccc3ncccc3c2)CC1 [Example 69, 1-((2-(4-Methylpiperidin-1-yl)-6-(trifluoromethyl)pyridin-3-yl)methyl)-3-(quinolin-6-yl)urea]

same assay, conditions: @5 μM; Cap=capsaicin; read-out: inhibition (as a percentage), (f) (human being) Cap

inhibition at 5 µM [%] | Molecule
19 | O=C(NCc1ccc(C(F)(F)F)nc1SC1CCCCC1)Nc1ccc2ccccc2n1 [Example 11, 1-((2-(Cyclohexylthio)-6-(trifluoromethyl)pyridin-3-yl)methyl)-3-(quinolin-2-yl)urea]

same assay, conditions: Cap=capsaicin

(f) (human being) Cap: effect in words (agonist / no effect) | Molecule
AG | CC1CCN(c2nc(C(F)(F)F)ccc2CNC(=O)Nc2ccc3ncn(C)c3c2)CC1 [Example 26, 1-(1-Methyl-1H-benzo[d]imidazol-6-yl)-3-((2-(4-methylpiperidin-1-yl)-6-(trifluoromethyl)pyridin-3-yl)methyl)urea]

same assay, conditions: Cap=capsaicin (100 nM); Ki from IC50 by Cheng-Prusoff equation; read-out: (f) Ki (human being) [nM] Cap

Ki [nM] | Molecule
0.4 | CC1CCN(c2nc(C(F)(F)F)ccc2CNC(=O)Nc2cccc3[nH]ncc23)CC1 [Example 44, 1-(1H-indazol-4-yl)-3-((2-(4-methylpiperidin-1-yl)-6-(trifluoromethyl)pyridin-3-yl)methyl)urea]
13 | CC1CCN(c2nc(C(F)(F)F)ccc2CNC(=O)Nc2ccc3[nH]ccc3c2)CC1 [Example 23, 1-(1H-Indol-5-yl)-3-((2-(4-methylpiperidin-1-yl)-6-(trifluoromethyl)pyridin-3-yl)methyl)urea]
7 | CC1CCN(c2nc(C(F)(F)F)ccc2CNC(=O)Nc2ccc3cnccc3c2)CC1 [Example 83, 1-(Isoquinolin-6-yl)-3-((2-(4-methylpiperidin-1-yl)-6-(trifluoromethyl)pyridin-3-yl)methyl)urea]
52 | Cc1nccc2cccc(NC(=O)NCc3ccc(C(F)(F)F)nc3N3CCC(C)CC3)c12 [Example 86, 1-(1-Methylisoquinolin-8-yl)-3-((2-(4-methylpiperidin-1-yl)-6-(trifluoromethyl)pyridin-3-yl)methyl)urea]
2 | CC(C)(C)COc1nc(C(F)(F)F)ccc1CNC(=O)Nc1cccc2ncccc12 [Example 66, 1-((2-(Neopentyloxy)-6-(trifluoromethyl)pyridin-3-yl)methyl)-3-(quinolin-5-yl)urea]
9 | 1-(6,7-Dihydro-5H-cyclopenta[b]pyridin-3-yl)-3-((2-(4-methylpiperidin-1-yl)-6-(trifluoromethyl)pyridin-3-yl)methyl)urea [Example 1]
50 | CC1CCN(c2nc(C(F)(F)F)ccc2CNC(=O)Nc2ccc3nc(N)sc3c2)CC1 [Example 34, 1-(2-Aminobenzo[d]thiazol-6-yl)-3-((2-(4-methylpiperidin-1-yl)-6-(trifluoromethyl)pyridin-3-yl)methyl)urea]
8 | CC1CCN(c2nc(C(F)(F)F)ccc2CNC(=O)Nc2cccc3[nH]c(C(C)(C)C)cc23)CC1 [Example 43, 1-(2-Tert-butyl-1H-indol-4-yl)-3-((2-(4-methylpiperidin-1-yl)-6-(trifluoromethyl)pyridin-3-yl)methyl)urea]
4 | O=C(NCc1ccc(C(F)(F)F)nc1SC1CCCCC1)Nc1cncc2ccccc12 [Example 19, 1-((2-(Cyclohexylthio)-6-(trifluoromethyl)pyridin-3-yl)methyl)-3-(isoquinolin-4-yl)urea]
7 | CN(C)C1(c2ccccc2)CCN(c2nc(C(F)(F)F)ccc2CNC(=O)Nc2cccc3[nH]ncc23)CC1 [Example 45, 1-((2-(4-(dimethylamino)-4-phenylpiperidin-1-yl)-6-(trifluoromethyl)pyridin-3-yl)methyl)-3-(1H-indazol-4-yl)urea]
1 | O=C(NCc1ccc(C(F)(F)F)nc1SC1CCCCC1)Nc1cccc2ccncc12 [Example 85, 1-((2-(Cyclohexylthio)-6-(trifluoromethyl)pyridin-3-yl)methyl)-3-(isoquinolin-8-yl)urea]

Molecule | Ki [nM]
O=C(NCc1ccc(C(F)(F)F)nc1OC1CCC1)Nc1cccc2ncccc12 [Example 68, 1-((2-Cyclobutoxy-6-(trifluoromethyl)pyridin-3-yl)methyl)-3-(quinolin-5-yl)urea] | 2
